Results on 26 molecules are retold here after the supplement of paper PMC10011410.

± gives the standard deviation of the averaged measurements.

The subject of the first assay is U-2 OS. As to the kind of experiment: cell viability (CellTiter-Glo) relative to DMSO (% of control); higher = more viable. Particulars: 5 µM; 24 h. The method, then: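 Cell viability of U-2 OS cells by CellTiter-Glo after 24 h compound treatment at 5, 10 and 20 uM (some at 40 and 80 uM), measured in parallel with the glutathione assay, as percent of DMSO control. Five technical replicate plates, averaged.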
On the technique in general: Cellular ATP, detected with luciferase, serves as a proxy for viable cell number.
With `COC[C@H]1OC(=O)c2coc3c2[C@@]1(C)C1=C(C3=O)[C@@H]2CCC(=O)[C@@]2(C)C[C@H]1OC(C)=O`, the cell viability turned out to be 83.6 ± 1.5.

As for `c1ccc(Nc2nc(-c3ccccc3)ns2)cc1`, the cell viability was found to be 98.7 ± 3.

Consider `C=CC(=O)Nc1cccc(Oc2nc(Nc3ccc(N4CCN(C)CC4)cc3OC)ncc2Cl)c1`, for which the cell viability is 87.2 ± 3.6.

Consider `Cn1nnnc1SC1=CS(=O)(=O)c2ccccc21`, for which the cell viability is 54.9 ± 6.7.

In turn, `CCC(=O)N1CCN(c2ccc(-n3c(=O)ccc4cnc5ccc(-c6cnc7ccccc7c6)cc5c43)cc2C(F)(F)F)CC1` came in with a cell viability of 66.4 ± 3.2.

In the case of `O=C1CC(Nc2ccccc2)C(=O)N1Cc1ccccc1` (stereo not drawn), the cell viability is 116 ± 4.3.

The molecule `C[C@@H]1C[C@H]2O[C@@H]2/C=C\C=C\C(=O)Cc2c(Cl)c(O)cc(O)c2C(=O)O1` registered a cell viability of 86.8 ± 3.

For `C=CC(=O)Nc1cc2c(Nc3ccc(F)c(Cl)c3)ncnc2cc1OCCCN1CCOCC1`, the cell viability worked out at 57.1 ± 4.1.

`O=C1/C(=C/c2ccc(O)c(Br)c2)CCC/C1=C\c1ccc(O)c(Br)c1` came in with a cell viability of 100 ± 4.4.

As to `CNC(=O)Nc1ccc2c(c1)CC[C@@]21OC(=O)N(CC(=O)N(Cc2ccc(F)cc2)[C@@H](C)C(F)(F)F)C1=O`, the cell viability amounted to 93.1 ± 1.9.

For the molecule `O=C(O[C@@H]1Cc2c(O)cc(O)cc2O[C@@H]1c1cc(O)c(O)c(O)c1)c1cc(O)c(O)c(O)c1`, the cell viability came out at 98.8 ± 3.2.

`O=S1(=O)C=C(Sc2nn(-c3ccccc3)c(=S)s2)c2ccccc21` gave a cell viability of 38.8 ± 8.9.

`C=CC(=O)Nc1ccc(CN2C(=O)N(c3cc(OC)cc(OC)c3)Cc3cnc(Nc4ccc(N5CCN(C)CC5)cc4)nc32)cc1` came in with a cell viability of 91 ± 4.1.

`CCCCCCCCCCCCCCCc1cccc(O)c1C(=O)O` returned a cell viability of 102 ± 3.

On to `Cl.Cl.O=C(O)Cn1nnc(-c2ccc(CN(CCCCOc3ccc(CN4CCCC4)cc3)CCc3ccccc3)cc2)n1`, for which the cell viability worked out at 96.5 ± 5.3.

Regarding `COc1cc2ncnc(Nc3ccc(F)c(Cl)c3)c2cc1NC(=O)/C=C/CN1CCCCC1`, the cell viability worked out at 74.4 ± 5.

As to `Cc1cc(-c2ccccc2)cc(C(=O)NNS(=O)(=O)c2ccccc2)c1F`, the cell viability was 109 ± 6.

Consider `Cn1c(=O)n(-c2ccc(C(C)(C)C#N)cc2)c2c3cc(-c4cnc5ccccc5c4)ccc3ncc21`, for which the cell viability is 68.1 ± 3.9.

`CCCCCC[C@H]1C(=O)O[C@H](C)[C@H](NC(=O)c2cccc(NC=O)c2O)C(=O)O[C@@H](C)[C@@H]1OC(=O)CC(C)C` had a cell viability of 54.1 ± 5.4.

The molecule `COC(=O)[C@]1(C)CC[C@]2(C)CC[C@]3(C)C4=CC=C5C(=CC(=O)C(O)=C5C)[C@]4(C)CC[C@@]3(C)[C@@H]2C1` had a cell viability of 5.12 ± 0.81.

The same assay, now with this note: 10 µM; 24 h.
With `O=C(Nc1nc(-c2ccccc2)ns1)c1cccs1`, the cell viability turned out to be 93.5 ± 3.8.

For `Cc1cc2c(C(C)C)c(O)c(O)c(C=O)c2c(O)c1-c1c(C)cc2c(C(C)C)c(O)c(O)c(C=O)c2c1O`, the cell viability worked out at 88.1 ± 5.2.

Turning to `C=CC(=O)Nc1cc(Nc2nccc(-c3cn(C)c4ccccc34)n2)c(OC)cc1N(C)CCN(C)C`, the cell viability stood at 55 ± 4.

As to `O=S1(=O)C=Cc2ccccc21`, the cell viability stood at 97.3 ± 2.8.

In turn, `CC(=O)c1c(O)c(C)c(O)c(Cc2c(O)c3c(c(C(=O)C=Cc4ccccc4)c2O)OC(C)(C)C=C3)c1O` gave a cell viability of 93.9 ± 3.6.

Turning to `CC1(C)CC[C@]2(C(=O)n3ccnc3)CC[C@]3(C)[C@H](C(=O)C=C4[C@@]5(C)C=C(C#N)C(=O)C(C)(C)[C@@H]5CC[C@]43C)[C@@H]2C1`, the cell viability was 43.8 ± 5.2.

The molecule `COC[C@H]1OC(=O)c2coc3c2[C@@]1(C)C1=C(C3=O)[C@@H]2CCC(=O)[C@@]2(C)C[C@H]1OC(C)=O` came in with a cell viability of 76 ± 2.8.

`c1ccc(Nc2nc(-c3ccccc3)ns2)cc1` had a cell viability of 95.3 ± 1.7.

Molecule `C=CC(=O)Nc1cccc(Oc2nc(Nc3ccc(N4CCN(C)CC4)cc3OC)ncc2Cl)c1` showed a cell viability of 76 ± 1.4.

As to `Cn1nnnc1SC1=CS(=O)(=O)c2ccccc21`, the cell viability amounted to 65.2 ± 7.2.

On to `CCC(=O)N1CCN(c2ccc(-n3c(=O)ccc4cnc5ccc(-c6cnc7ccccc7c6)cc5c43)cc2C(F)(F)F)CC1`, for which the cell viability is 66.8 ± 3.4.

For the molecule `O=C1CC(Nc2ccccc2)C(=O)N1Cc1ccccc1` (stereo not drawn), the cell viability is 106 ± 4.3.

The molecule `C[C@@H]1C[C@H]2O[C@@H]2/C=C\C=C\C(=O)Cc2c(Cl)c(O)cc(O)c2C(=O)O1` yielded a cell viability of 24.7 ± 2.7.

`C=CC(=O)Nc1cc2c(Nc3ccc(F)c(Cl)c3)ncnc2cc1OCCCN1CCOCC1` yielded a cell viability of 6.54 ± 1.9.

In turn, `O=C1/C(=C/c2ccc(O)c(Br)c2)CCC/C1=C\c1ccc(O)c(Br)c1` returned a cell viability of 95.1 ± 4.6.

Take `CNC(=O)Nc1ccc2c(c1)CC[C@@]21OC(=O)N(CC(=O)N(Cc2ccc(F)cc2)[C@@H](C)C(F)(F)F)C1=O`: the cell viability is 83.6 ± 4.3.

`O=C(O[C@@H]1Cc2c(O)cc(O)cc2O[C@@H]1c1cc(O)c(O)c(O)c1)c1cc(O)c(O)c(O)c1` showed a cell viability of 97.6 ± 4.7.

Regarding `O=S1(=O)C=C(Sc2nn(-c3ccccc3)c(=S)s2)c2ccccc21`, the cell viability turned out to be 30.5 ± 2.7.

As for `C=CC(=O)Nc1ccc(CN2C(=O)N(c3cc(OC)cc(OC)c3)Cc3cnc(Nc4ccc(N5CCN(C)CC5)cc4)nc32)cc1`, the cell viability was 79.2 ± 3.3.

On to `CCCCCCCCCCCCCCCc1cccc(O)c1C(=O)O`, for which the cell viability turned out to be 106 ± 5.8.

On to `Cl.Cl.O=C(O)Cn1nnc(-c2ccc(CN(CCCCOc3ccc(CN4CCCC4)cc3)CCc3ccccc3)cc2)n1`, for which the cell viability was found to be 100 ± 3.5.

As for `COc1cc2ncnc(Nc3ccc(F)c(Cl)c3)c2cc1NC(=O)/C=C/CN1CCCCC1`, the cell viability is 59.5 ± 2.5.

Turning to `Cc1cc(-c2ccccc2)cc(C(=O)NNS(=O)(=O)c2ccccc2)c1F`, the cell viability was 101 ± 7.7.
